# Data from patent US7943568B2, “Antitumor agents” (The Ohio State University Research Foundation, priority 2005, dated 2011).
# Entries after “also recorded” stand apart in the source; their conditions may differ. Counter-ions that a name gives are not always drawn. Like-named read-outs stand apart in the source and are kept apart here.
# Experiments:
# RBC GSH = RBC GSH depletion by DEM pretreatment in the rat; type: in vivo
# HDAC = test system: T1, HDAC; type: biochemical; details: for IC50: n=3, read-out: IC50, HDAC inhibitory activity; for times more potent as HDAC inhibitors than FK228: relative to FK228
# T1 construct: other: n=3; other: relative to FK228
# Protocol: To the plasma was added 2 mL acetonitrile to precipitate the proteins. After centrifugation, the acetonitrile layer was transferred to a clean Falcon polypropylene tube and evaporated to dryness under a stream of nitrogen. […] Their HDAC inhibitory activities were assayed by using the Fluor de Lys HDAC Fluorescent Activity Assay/Drug Discovery Kit (BioMol, Plymouth Meeting, Pa.).
# [1] = Formation kinetics of FK228 metabolites in rat plasma containing 10 mM GSH; type: in vitro ADME; details: for half-life at 100 μg/mL: rat, plasma; for time to plateau or maximum concentration: FK228 100 μg/mL, 37° C.
# Source text: Serial samples were removed at pre-selected time points up to […]. FK228 and its major metabolites were monitored by ESI LC_MS on the API instrument.
# [2] = Distribution of FK228 and metabolites between plasma and RBC after rat whole blood incubation; type: in vitro ADME, rat; details: for detection in RBC cytosol / homogenate / detection in plasma fraction: FK228 100 μg/mL, rat whole blood, 37° C., 60 min
# Protocol: After centrifugation, the plasma was removed and the RBC fraction was washed 8 times with 2 mL saline each. […] The RBC debris was further washed with 1 mL acetonitrile each 8 times.
# The blood was centrifuged to remove plasma. To the RBC fraction was added blank rat plasma to restore the initial volume, and the mixture was homogenized by a glass tissue grinder (400 strokes). The plasma and RBC homogenates were analyzed by ESI ion-trap LC-MS. A Waters Spherisorb S3 ODS1 column (2 mm ID×10 cm, particle 5 μm, Waters Corporation, Milford, Mass., USA) with a gradient elution was used. The gradient was initiated with 25% acetonitrile in 0.1% acetic acid for 5 minutes, followed by a linear increase to 70% acetonitrile over 5 minutes, which was kept constant for 15 minutes. The mobile phase was then returned linearly to the original condition over 3 minutes, which was then maintained for 7 minutes. The cycle time for each analysis was 35 minutes.
# [3] = In vitro rat blood distribution / RBC uptake of FK228
# [4] = i.v. bolus, for 250 g rats; cited from earlier work
# [5] = Tissue distribution and dose recovery (mass balance) of FK228 in the rat; type: in vivo; details: for dose excreted: male, Sprague-Dawley, intravenous
# Protocol: (§1) Pharmacokinetics and tissue distribution studies in the rat Twenty-three male S.D. rates weighing 250-300 g were divided into 5 groups. All rats were cannulated by the left jugular vein under ketamine anesthesia (im, 100 mg/kg) for drug administration and/or blood sampling. The rats were kept in metabolism cages and allowed to recover overnight with food and water given ad libitum. The animal protocols were approved by the Institutional Laboratory Animal Care and Use Committee (ILACUC) of the Ohio State University Laboratory Animal Resources (ULAR), and adhered to the guideline and “Principles of Laboratory Animal Care” by National Institutes of Health (NIH).
# (§2) At the time schedule of predose, 5, 10, 20, […], 60, 120, 180, 300 minutes after doing, blood samples of 0.2 mL each were withdrawn from the same cannula with an equal volume of normal saline. Plasma was separated immediately by centrifugation (10,000 g×0.5 min.) extracted with 10-volume ethyl acetate. After centrifugation, the organic layer was transferred into a clean conical Falcon polypropylene tube, and evaporated under a stream of nitrogen. […] Weighed wet organ tissue samples were homogenized in appropriate volumes of blank human plasma with an Ultra-Turrax SDT1610 electric homogenizer (Tekmar, Cincinnati, Ohio) at the highest speed setting for 10 seconds 4 times. […] The homogenates were then extracted and determined as in plasma samples (Chan, et al. 1997; Li and Chan, 2000). Feces samples were homogenized similarly as above. After centrifugation, the supernatant was extracted and determined as plasma samples.
# (§3) A 2 mm×50 mm Keystone BetaBasic-C8 column (Keystone, Bellefonte, Pa.) and an isocratic elution were used with the mobile phase consisting of 70% acetonitrile and 0.1% acetic acid at a flow rate of 0.2 mL/min. The flow leaving the HPLC column was split in a ratio of 20:1, with only 10 μL/min. entering the mass spectrometer. All samples were determined by individual calibration curves using specific blank sample matrix. […] While the recoveries from rat muscle and fat samples were further normalized to whole body weight assuming the muscle and fat compose 40 and 4% of the rat total body weight, respectively (Davies and Morris, 1993).
# [6] = target: multidrug resistant-associated protein 1 (MRP1) (Homo sapiens, UniProt P33527); details: multiple cellular models
# Pgp [7] = target: T2, Pgp (Homo sapiens, UniProt P08183); details: multiple cellular models
# Pgp [8] = target: T2, Pgp; details: earlier finding; cited from earlier work
# [9] = patients, 4-hour infusion; cited from earlier work
# [10] = FK228 stability and protein binding in human plasma; type: in vitro ADME
# [11] = Rat pharmacokinetics of FK228; type: in vivo; details: for AUC(0-inf) / Cmax / MRT / clearance / Vd: male, Sprague-Dawley, plasma, iv; for clearance: read-out: Cltotal; for Vd: read-out: Vdss
# Protocol: as §1, §2, §3
# [12] = after 1 hour whole blood incubation at 37° C.
# [13] = 2 mg/kg, I.v. bolus (n = 6), 2 mg/kg
# [14] = I.v. bolus with CsA pretreatment (n = 3)
# [15] = I.v. bolus with DEM pretreatment (n = 5)
# [16] = rat plasma containing 10 mM GSH
# T2 sequence (P08183 whole entry): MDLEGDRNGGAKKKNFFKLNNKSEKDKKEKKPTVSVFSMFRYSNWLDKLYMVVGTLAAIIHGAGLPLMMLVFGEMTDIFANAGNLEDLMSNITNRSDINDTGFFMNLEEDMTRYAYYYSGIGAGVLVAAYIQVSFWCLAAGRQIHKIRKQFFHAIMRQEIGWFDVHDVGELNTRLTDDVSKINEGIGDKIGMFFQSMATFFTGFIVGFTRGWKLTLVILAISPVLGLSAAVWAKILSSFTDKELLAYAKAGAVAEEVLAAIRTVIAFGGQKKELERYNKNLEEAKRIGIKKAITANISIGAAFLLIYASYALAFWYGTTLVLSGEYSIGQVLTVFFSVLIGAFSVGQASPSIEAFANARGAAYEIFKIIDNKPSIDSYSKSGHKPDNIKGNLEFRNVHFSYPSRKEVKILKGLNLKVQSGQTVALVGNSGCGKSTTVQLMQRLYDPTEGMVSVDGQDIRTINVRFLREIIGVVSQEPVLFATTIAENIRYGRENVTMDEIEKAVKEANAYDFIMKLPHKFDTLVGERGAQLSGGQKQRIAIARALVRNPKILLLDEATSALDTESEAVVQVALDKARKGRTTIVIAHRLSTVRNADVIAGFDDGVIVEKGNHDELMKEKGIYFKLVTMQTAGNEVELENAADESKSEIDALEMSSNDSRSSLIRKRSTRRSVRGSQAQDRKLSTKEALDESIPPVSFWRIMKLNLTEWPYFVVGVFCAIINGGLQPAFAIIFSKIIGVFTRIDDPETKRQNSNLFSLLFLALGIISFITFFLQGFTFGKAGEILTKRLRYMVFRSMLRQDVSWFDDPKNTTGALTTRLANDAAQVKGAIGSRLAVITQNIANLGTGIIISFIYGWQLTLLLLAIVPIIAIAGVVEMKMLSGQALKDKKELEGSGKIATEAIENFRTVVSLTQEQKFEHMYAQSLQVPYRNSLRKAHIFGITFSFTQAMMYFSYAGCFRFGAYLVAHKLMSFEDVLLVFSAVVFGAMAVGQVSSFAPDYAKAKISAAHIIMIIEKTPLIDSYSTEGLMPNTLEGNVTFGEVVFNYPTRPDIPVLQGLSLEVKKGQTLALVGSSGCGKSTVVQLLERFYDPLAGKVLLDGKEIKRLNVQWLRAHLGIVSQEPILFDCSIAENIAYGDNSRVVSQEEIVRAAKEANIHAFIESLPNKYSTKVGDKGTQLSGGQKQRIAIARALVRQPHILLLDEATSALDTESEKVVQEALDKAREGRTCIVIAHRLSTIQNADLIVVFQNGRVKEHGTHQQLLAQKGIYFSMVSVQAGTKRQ
# Sequence of multidrug resistant-associated protein 1 (MRP1) (P33527 whole entry): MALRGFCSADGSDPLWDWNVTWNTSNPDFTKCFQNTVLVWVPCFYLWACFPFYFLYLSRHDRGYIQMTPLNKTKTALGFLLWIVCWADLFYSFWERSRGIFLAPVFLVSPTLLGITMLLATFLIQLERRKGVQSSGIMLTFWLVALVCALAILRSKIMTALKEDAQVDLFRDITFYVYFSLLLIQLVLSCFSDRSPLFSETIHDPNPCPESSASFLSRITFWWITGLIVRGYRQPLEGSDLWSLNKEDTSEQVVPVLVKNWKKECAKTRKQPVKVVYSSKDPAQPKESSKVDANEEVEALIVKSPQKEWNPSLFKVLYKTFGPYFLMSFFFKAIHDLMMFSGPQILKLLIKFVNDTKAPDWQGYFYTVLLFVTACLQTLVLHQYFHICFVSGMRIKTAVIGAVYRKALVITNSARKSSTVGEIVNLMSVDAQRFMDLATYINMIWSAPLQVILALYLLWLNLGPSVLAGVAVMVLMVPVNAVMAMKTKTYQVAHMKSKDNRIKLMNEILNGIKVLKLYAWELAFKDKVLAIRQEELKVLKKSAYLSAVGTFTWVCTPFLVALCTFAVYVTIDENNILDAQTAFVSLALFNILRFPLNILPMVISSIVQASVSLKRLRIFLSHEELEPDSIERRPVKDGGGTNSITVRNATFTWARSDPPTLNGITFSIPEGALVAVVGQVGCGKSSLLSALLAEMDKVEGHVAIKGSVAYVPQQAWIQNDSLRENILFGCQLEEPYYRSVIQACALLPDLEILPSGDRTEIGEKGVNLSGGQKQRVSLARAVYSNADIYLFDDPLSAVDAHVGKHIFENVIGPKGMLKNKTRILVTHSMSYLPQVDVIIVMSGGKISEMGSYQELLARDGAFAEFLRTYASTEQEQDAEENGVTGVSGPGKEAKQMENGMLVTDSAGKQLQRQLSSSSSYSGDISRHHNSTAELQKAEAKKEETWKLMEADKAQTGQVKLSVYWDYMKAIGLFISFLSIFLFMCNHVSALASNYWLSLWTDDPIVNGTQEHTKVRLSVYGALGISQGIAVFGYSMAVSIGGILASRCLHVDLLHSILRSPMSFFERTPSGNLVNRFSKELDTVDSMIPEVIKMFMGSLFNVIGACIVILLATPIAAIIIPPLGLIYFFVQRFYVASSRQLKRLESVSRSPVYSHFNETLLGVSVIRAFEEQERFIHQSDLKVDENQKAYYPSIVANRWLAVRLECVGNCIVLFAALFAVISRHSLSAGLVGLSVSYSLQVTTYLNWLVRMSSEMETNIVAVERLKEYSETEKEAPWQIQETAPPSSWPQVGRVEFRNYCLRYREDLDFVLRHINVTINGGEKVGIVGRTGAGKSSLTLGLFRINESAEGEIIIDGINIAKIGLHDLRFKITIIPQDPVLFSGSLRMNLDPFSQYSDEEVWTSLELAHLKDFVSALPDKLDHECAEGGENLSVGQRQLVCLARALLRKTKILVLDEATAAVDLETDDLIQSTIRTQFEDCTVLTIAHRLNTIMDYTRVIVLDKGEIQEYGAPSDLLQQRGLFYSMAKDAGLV
smiles,measurement,setting,value
"CCOC(=O)/C=C\C(=O)OCC [DEM, diethyl maleate]",depletion of RBC GSH,RBC GSH,50%
CC(C)C1NC(=O)CC(/C=C/CCS)OC(=O)C(C(C)C)NC(=O)C2NC(=O)C(CSC2C)NC1=O (centres unmarked) [metabolite B],IC50,HDAC,0.94 ± 0.14 nM
same,times more potent as HDAC inhibitors than FK228,HDAC,≥ 82 times
same,stability of metabolite,"[1]; rat plasma containing 10 mM GSH, in words",instable
same,half-life at 100 μg/mL,[1]; read-out: terminal half life,14.4 min
same,detection in RBC cytosol / homogenate,[2],detected
same,detection in plasma fraction,[2],detected
same,fate in rat RBC,[2]; [12],remained in rat RBC
"C/C=C1\NC(=O)[C@H]2CSSCC/C=C/[C@H](CC(=O)N[C@H](C(C)C)C(=O)N2)OC(=O)[C@H](C(C)C)NC1=O [FK228, (E)-(1S,4S,10S,21R)-7-[(Z)-ethylidene]-4,21-diisopropyl-2-oxz-12,13-dithia-5,8,20,23-tetraazabicyclo[8,7,6]-tricos-16ene-3,6,9,19,22-pentanone]","recovery at 1 h, 10 μg/mL","[3]; male, Sprague-Dawley, rat, fresh heparinized whole blood",< 35%
same,plasma FK228 remaining,"[3]; rat blood at 37° C., within 2 minutes, 0.1-10 μg/mL",over 20%
same,distribution volume,[4],22.3 ± 7.3 L/kg
same,total body clearance,[4],425.3 ± 117.7 mL/min
same,total amount of FK228 in 24-hour urine and 6-hour bile,[5],less than 11 % of the dose
same,total recovery of intact FK228 from 9 major organ tissues,[5]; 6 hours,2.5±1.26%
same,total recovery of intact FK228 from 9 major organ tissues,[5]; 24 hours,0.56±0.3%
same,dose excreted,"[5]; bile, n=3, read-out: dose recovery from 6 hour bile",4.76 ± 0.34%
same,dose excreted,"[5]; urine, 2 mg/kg, n=6, read-out: dose recovery from 24 hour urine",5.9 ± 1.6%
same,MRP1 substrate,[6],substrate
same,Pgp substrate,Pgp [7],substrate
same,P-glycoprotein substrate,Pgp [8],substrate
same,maximum tolerated dose (MTD),[9],17.8 mg/m^2
same,binding to plasma proteins,[10],over 90%
same,stability,[10],stable
same,plasma FK228 concentrations,[11]; following i.v. infusion,< 20 nM
same,AUC(0-inf),"[11]; 2 mg/kg, I.v. bolus (n = 6)",0.0683 µM·h
same,Cmax,"[11]; 2 mg/kg, I.v. bolus (n = 6)",490 ± 164 nM
same,MRT,"[11]; 2 mg/kg, I.v. bolus (n = 6)",36.3 min
same,clearance,[11]; [13],237 ± 58 mL/min
same,Vd,[11]; [13],32.7 ± 4.51 L/kg
same,Cmax,"[11]; 2 mg/kg, I.v. infusion (n = 6)",25.3 ± 3.7 nM
same,MRT,"[11]; 2 mg/kg, I.v. infusion (n = 6)",17.7 min
same,Vd,"[11]; 2 mg/kg, I.v. infusion (n = 6)",10.8 ± 2.7 L/kg
same,AUC(0-inf),[11]; [14],0.0667 µM·h
same,Cmax,[11]; [14],548 ± 249 nM
same,MRT,[11]; [14],27 min
same,clearance,[11]; [14],249 ± 18 mL/min
same,Vd,[11]; [14],29 ± 3.2 L/kg
same,AUC(0-inf),[11]; [15],0.0903 µM·h
same,MRT,[11]; [15],30 min
same,Cmax,"[11]; I.v. bolus with DEM pretreatment (n = 5), called C0 in text",1180 ± 637 nM
same,clearance,[11]; [15],276 ± 152 mL/min
same,Vd,[11]; [15],22.4 ± 13 L/kg
same,AUC(0-inf),[11]; I.v. infusion (n = 6),0.103 µM·h
same,clearance,[11]; I.v. infusion (n = 6),179 ± 27.5 mL/min
same,Vd,[11]; I.v. infusion (n = 6),11.8 ± 2.7 L/kg
CC(C)C1NC(=O)CC2/C=C/CCSSCC(NC1=O)C(=O)NC(C(C)SCC(NC(=O)CCC(N)C(=O)O)C(=O)NCC(=O)O)C(=O)NC(C(C)C)C(=O)O2 (centres unmarked) [metabolite E],time to plateau or maximum concentration,[1]; [16],2 h
same,detection in RBC cytosol / homogenate,[2],detected; also recorded: minor peak
same,detection in plasma fraction,[2],minor peak
C/C=C1\NC(=O)C(CS)NC(=O)C(C(C)C)NC(=O)CC(/C=C/CCS)OC(=O)C(C(C)C)NC1=O (centres unmarked) [metabolite A],IC50,HDAC,1.65 ± 0.24 nM
same,times more potent as HDAC inhibitors than FK228,HDAC,at least 46 times
same,half-life at 100 μg/mL,[1],18.5 min
same,fate in rat RBC,[2],pumped out of rat RBC
CC(C)C1NC(=O)CC(/C=C\CCSSCC(NC(=O)CCC(N)C(=O)O)C(=O)NCC(=O)O)OC(=O)C(C(C)C)NC(=O)C2NC(=O)C(CSC2C)NC1=O (centres unmarked) [metabolite D],IC50,HDAC,15.9 ± 2.7 nM
same,time to plateau or maximum concentration,[1]; [16],1 h
same,detection in RBC cytosol / homogenate,[2],detected
same,detection in plasma fraction,[2],detected
same,fate in rat RBC,[2]; [12],remained in rat RBC
CC(C)C1NC(=O)CC(/C=C/CCS)OC(=O)C(C(C)C)NC2(O)SCC(NC1=O)C(=O)NC2C(C)SCC(NC(=O)CCC(N)C(=O)O)C(=O)NCC(=O)O (centres unmarked) [metabolite F],detection in plasma fraction,[2],detected
same,fate in rat RBC,[2]; [12],pumped out of rat RBC
